Results from patent publication US4108991A, “N-aminosulfenyl derivatives of aldicarb” (priority 1976, dated 1978).

Assays:
[1] = system: Pea aphid; assay: Initial contact activity, leaf dip, pea aphid; type: in vivo, Acyrthosiphon pisum [Harris]; details: Acyrthosiphon pisum, foliar, 48 h, initial, PA, 48 hours, read-out: Percent Kill
Method: (§1) Initial Contact Activity: One half gram of test compound was dissolved in 40 ml of acetone and this solution was dispersed in 360 ml of water containing one drop of isooctylphenyl polyethoxyethanol. Aliquots of this solution, which corresponds to 1250 ppm of active ingredient, were diluted with an appropriate amount of water to provide solutions containing various concentrations of active ingredient. Test organisms and techniques were as follows: The activity against the Mexican bean beetle (Epilachna varivestis Muls.) and the southern armyworm (Spodoptera eridania [Cram.]) was evaluated by dipping the leaves of pinto bean plants into the test solution and infesting the leaves with the appropriate immature-form insects when the foiliage had dried; the activity against the pea aphid (Acyrthosiphon pisum [Harris]) was evaluated on broad bean plants whose leaves were dipped before infestation with adult aphids; the activity against two-sotted spider mites (Tetranychus urticae Koch) was evaluated on pinto bean plants whose leaves were dipped after infestation with adult mites; the activity against the milkweed bug (Oncopeltus fasciatus [Dallas]), and the plum curculio (Conotrachelus nenuphar [Herbst]) was evaluated by spraying the test solutions into glass dishes or jars containing the adult insects; the activity against the confused flour beetle (Tribolium confusum duVal) was evaluated by introducing the insects into glass dishes which had been previously sprayed with test solution and allowed to dry. All organisms in the test were maintained in a holding room at 80° F and 50% relative humidity for an exposure period of 48 hours. At the end of this time, the dead and living insects or mites were counted, and the percent kill was calculated.

[2] = system: Plum curculio; assay: Initial contact activity, spray, plum curculio; type: in vivo, Conotrachelus nenuphar [Herbst]; details: Conotrachelus nenuphar, initial, PC, 48 hours, read-out: Percent Kill
Method: as §1

[3] = system: Southern armyworm; assay: Residual (7-day) contact activity, southern armyworm; type: in vivo, Spodoptera eridania [Cram.]; details: Spodoptera eridania, 168 h, residual 7-day, AW, read-out: Percent Kill
Method: as §1
(§2) Residual Contact Activity: The residual contact activity of the compounds was determined on the same organisms using the techniques described above, except that in each case the treated surface was allowed to dry and was exposed to normal light and air for seven days before introduction of the mites or insects.

[4] = system: Granary Weevil; assay: Initial contact activity, granary weevil; type: in vivo; details: Sitophilus granarius, 48 h, initial, GW, 48 hours, read-out: Percent Kill
[5] = system: rats; assay: Toxicity to rats, acute oral median lethal dose (LD50), Method A; type: in vivo, young female albino rats, derived from Sprague-Dawley stock; details: rat; for Enhancement LD50 Derivative/LD50 Aldicarb: ratio to aldicarb
Method: (§3) Method A: Young female albino rats, derived from Sprague-Dawley stock and weighing between 175 and 200 g, were used. An initial screening was conducted to determine the general level of toxicity of the test compounds and to establish the dosing range to be used with each compound. The test materials were suspended in corn oil and administered directly into the stomachs of the rats, using a hypodermic syringe equipped with a ball-tipped intubating needle. A range of dosing levels was employed utilizing two rats at each level. […] This method was used to determine the toxicity to rats of the compounds of Examples I, II, and III and aldicarb.

[6] = as above; type: in vivo, young female albino rats, derived from Sprague-Dawley stock; details: in vivo, rat, corn oil, 14 days observation
Method: as §3

[7] = system: Confused flour beetle; assay: Residual (7-day) contact activity, confused flour beetle; type: in vivo, Tribolium confusum duVal; details: Tribolium confusum, 168 h, residual 7-day, FB, read-out: Percent Kill
Method: as §1, §2

[8] = system: Milkweed bug; assay: Residual (7-day) contact activity, milkweed bug; type: in vivo, Oncopeltus fasciatus [Dallas]; details: Oncopeltus fasciatus, 168 h, residual 7-day, MWB, read-out: Percent Kill
Method: as §1, §2

[9] = system: Mexican bean beetle; assay: Residual (7-day) contact activity, Mexican bean beetle; type: in vivo, Epilachna varivestis Muls.; details: Epilachna varivestis, 168 h, residual 7-day, BB, read-out: Percent Kill
Method: as §1, §2

[10] = system: Pea aphid; assay: Residual (7-day) contact activity, pea aphid; type: in vivo, Acyrthosiphon pisum [Harris]; details: Acyrthosiphon pisum, 168 h, residual 7-day, PA, read-out: Percent Kill
Method: as §1, §2

[11] = system: Granary Weevil; assay: Residual (7-day) contact activity, granary weevil; type: in vivo; details: Sitophilus granarius, 168 h, residual 7-day, GW, read-out: Percent Kill
[12] = system: Milkweed bug; assay: Initial contact activity, spray, milkweed bug; type: in vivo, Oncopeltus fasciatus [Dallas]; details: Oncopeltus fasciatus, 48 h, initial, MWB, 48 hours, read-out: Percent Kill
Method: as §1

[13] = system: Confused flour beetle; assay: Initial contact activity, sprayed dishes, confused flour beetle; type: in vivo, Tribolium confusum duVal; details: Tribolium confusum, initial, FB, 48 hours, read-out: Percent Kill
Method: as §1

[14] = system: Southern armyworm; assay: Initial contact activity, leaf dip, southern armyworm; type: in vivo, Spodoptera eridania [Cram.]; details: Spodoptera eridania, foliar, 48 h, initial, AW, 48 hours, read-out: Percent Kill
Method: as §1

[15] = system: Mexican bean beetle; assay: Systemic activity, soil-watering, Mexican bean beetle; type: in vivo, Epilachna varivestis Muls.; details: Epilachna varivestis, 48 h, systemic, BB, read-out: Percent Kill
Method: as §1
Systemic Activity: Systemic activity was measured using a soil-watering technique. Test organisms were Mexican bean beetle, southern armyworm, pea aphid, and mites on plants as described above in this Example. With appropriate precautions to avoid contact of the solution with the test plant surfaces, 25 ml of a test solution, prepared as above to contain the desired amount of active ingredient, were poured evenly over the surface of the soil in which the plant was growing. The treated plants were maintained under normal growing conditions for three days to permit translocation of the toxicant, after which the leaves were infested. Two days after infestation, counts of living and dead insects were made.

SMILES: CSC(C)(C)C=NOC(=O)N(C)SN(C)Cc1ccccc1 [Example I, 2-methyl-2-(methylthio)propanol O-[(N-benzyl-N-methylaminosulfenyl)(methyl)carbamoyl]oxime]
- mortality at 10 ppm [1]: 20%
- mortality at 39 ppm [1]: 62%
- mortality at 156 ppm [1]: 100%
- mortality at 1250 ppm [1]: 100%
- mortality at 10 ppm [2]: 10%
- mortality at 39 ppm [2]: 0%
- mortality at 156 ppm [2]: 0%
- mortality at 1250 ppm [2]: 45%
- mortality at 312 ppm [3]: 0%
- mortality at 1250 ppm [3]: 91%
- mortality at 156 ppm [4]: 100%
- mortality at 312 ppm [4]: 100%
- mortality at 1250 ppm [4]: 100%
- LD50 relative to that of aldicarb [5]: 19 times
- Enhancement LD50 Derivative/LD50 Aldicarb [5]: 19
- LD50 at 336 h [6]: 9.4 mg/kg
- mortality at 312 ppm [7]: 0%
- mortality at 1250 ppm [7]: 2.6%
- mortality at 156 ppm [8]: 90%
- mortality at 312 ppm [8]: 95%
- mortality at 1250 ppm [8]: 100%
- mortality at 312 ppm [9]: 0%
- mortality at 1250 ppm [9]: 89%
- mortality at 156 ppm [10]: 0%
- mortality at 312 ppm [10]: 6.3%
- mortality at 1250 ppm [10]: 100%
- mortality at 312 ppm [11]: 41%
- mortality at 1250 ppm [11]: 100%
- mortality at 10 ppm [12]: 5%
- mortality at 39 ppm [12]: 80%
- mortality at 156 ppm [12]: 100%
- mortality at 1250 ppm [12]: 100%
- mortality at 156 ppm [13]: 5%
- mortality at 312 ppm [13]: 5%
- mortality at 1250 ppm [13]: 2.5%
- mortality at 156 ppm [14]: 0%
- mortality at 312 ppm [14]: 24%
- mortality at 625 ppm [14]: 25%
- mortality at 1250 ppm [14]: 33%
- mortality at 39 ppm [15]: 0%
- mortality at 156 ppm [15]: 75%

SMILES: CSC(C)(C)C=NOC(=O)N(C)SN1CCOCC1 [Example II, 2-methyl-2-(methylthio)propanol O-[(N-methyl-N-morpholinosulfenyl)carbamoyl]oxime]
- mortality at 10 ppm [1]: 78%
- mortality at 39 ppm [1]: 100%
- mortality at 156 ppm [1]: 100%
- mortality at 1250 ppm [1]: 100%
- mortality at 10 ppm [2]: 0%
- mortality at 39 ppm [2]: 5%
- mortality at 156 ppm [2]: 47%
- mortality at 1250 ppm [2]: 100%
- mortality at 312 ppm [3]: 64%
- mortality at 1250 ppm [3]: 55%
- mortality at 156 ppm [4]: 100%
- mortality at 312 ppm [4]: 100%
- mortality at 1250 ppm [4]: 100%
- LD50 relative to that of aldicarb [5]: 2.4 times
- Enhancement LD50 Derivative/LD50 Aldicarb [5]: 2.4
- LD50 at 336 h [6]: 1.2 mg/kg
- mortality at 312 ppm [7]: 0%
- mortality at 1250 ppm [7]: 2.5%
- mortality at 156 ppm [8]: 100%
- mortality at 312 ppm [8]: 100%
- mortality at 1250 ppm [8]: 100%
- mortality at 312 ppm [9]: 88%
- mortality at 1250 ppm [9]: 100%
- mortality at 156 ppm [10]: 0%
- mortality at 312 ppm [10]: 0%
- mortality at 1250 ppm [10]: 93%
- mortality at 312 ppm [11]: 20%
- mortality at 1250 ppm [11]: 100%
- mortality at 10 ppm [12]: 25%
- mortality at 39 ppm [12]: 100%
- mortality at 156 ppm [12]: 100%
- mortality at 1250 ppm [12]: 100%
- mortality at 156 ppm [13]: 5%
- mortality at 312 ppm [13]: 51%
- mortality at 1250 ppm [13]: 80%
- mortality at 156 ppm [14]: 0%
- mortality at 312 ppm [14]: 0%
- mortality at 625 ppm [14]: 70%
- mortality at 1250 ppm [14]: 100%
- mortality at 39 ppm [15]: 58%
- mortality at 156 ppm [15]: 100%
